Results as given in paper PMC10272180, “Ancient medicinal plant rosemary contains a highly efficacious and isoform-selective KCNQ potassium channel opener” (Communications Biology, 2023).

Key:
KCNQ2/3/5 = biological target: T1, KCNQ2/3/5 (Homo sapiens, UniProt O43525+O43526+Q9NR82); assay: TEVC of KCNQ2/3/5 heteromers expressed in Xenopus laevis oocytes; type: cell-based
T1 construct: expressed in transfected cells; host or cells: Xenopus laevis oocytes co-injected with cRNAs (1:1:1 according to the authors' reply)
Source text: (§1) We generated cRNA transcripts encoding human KCNQ1, 2, 3, and 5 (wild-type and mutant) by in vitro transcription using the mMessage mMachine kit (Thermo Fisher Scientific, Waltham, MA, USA) according to manufacturer’s instructions, after vector linearization, from cDNA sub-cloned into expression vectors (pTLNx and pXOOM) incorporating Xenopus laevis β-globin 5’ and 3’ UTRs flanking the coding region to enhance translation and cRNA stability. Mutant KCNQ cDNAs were generated by Genscript (Piscataway, NJ, USA) and cRNAs made as above. We injected defolliculated stage V and VI Xenopus laevis oocytes (Xenoocyte, Dexter, MI, USA) with KCNQ cRNAs (2–10 ng) and incubated the oocytes at 16 °C in ND96 oocyte storage solution containing penicillin and streptomycin, with daily washing, for 2–4 days prior to two-electrode voltage-clamp (TEVC) recording.
(§2) We performed TEVC at room temperature using an OC-725C amplifier (Warner Instruments, Hamden, CT, USA) and pClamp10 software (Molecular Devices, Sunnyvale, CA, USA) 2–4 days after cRNA injection. We placed oocytes in a small-volume oocyte bath (Warner) and viewed them with a dissection microscope for cellular electrophysiology. We sourced chemicals from Sigma-Aldrich (St. Louis, MO, USA) and Combi-Blocks (San Diego, CA, USA). We studied effects of Salvia rosmarinus extracts and of compounds, solubilized directly in bath solution (in mM): 96 NaCl, 4 KCl, 1 MgCl2, 1 CaCl2, 10 HEPES (pH 7.6). We introduced extracts or compounds into the oocyte recording bath by gravity perfusion at a constant flow of 1 ml per minute for 3 min prior to recording. Pipettes were of 1-2 MΩ resistance when filled with 3 M KCl. We recorded currents in response to voltage pulses between −120 mV and +40 mV at 10 mV intervals from a holding potential of −80 mV, to yield current-voltage relationships and examine activation kinetics. We analyzed data using Clampfit (Molecular Devices) and Graphpad Prism software (GraphPad, San Diego, CA, USA), stating values as mean ± SEM. We plotted raw or normalized tail currents versus prepulse voltage and fitted with a single Boltzmann function:1 g=(A1−A2)/1+exp[V1/2−V/Vs]y+A2 where g is the normalized tail conductance, A1 is the initial value at -∞, A2 is the final value at +∞, V1/2 is the half-maximal voltage of activation and Vs the slope factor. We fitted activation and deactivation kinetics with single exponential functions.

KCNQ3/5 = biological target: T2, KCNQ3/5 (Homo sapiens, UniProt O43525+Q9NR82); assay: TEVC of KCNQ3/5 heteromers expressed in Xenopus laevis oocytes; type: cell-based
T2 construct: expressed in transfected cells; host or cells: Xenopus laevis oocytes co-injected with cRNAs
Source text: as §1
as §2, with “We recorded currents in response to voltage pulses between −120 mV and +40 mV at 10 mV intervals from a holding potential of −80 mV, to yield current-voltage relationships and examine activation kinetics.” left out

KCNQ2 = KCNQ2 (Homo sapiens, UniProt O43526); assay: TEVC of KCNQ2 homomers expressed in Xenopus laevis oocytes; type: cell-based
Source text: as §1
as §2, with “We recorded currents in response to voltage pulses between −120 mV and +40 mV at 10 mV intervals from a holding potential of −80 mV, to yield current-voltage relationships and examine activation kinetics.” left out

KCNQ3*-R242A = KCNQ3*-R242A (Homo sapiens, UniProt O43525, A315T/R242A); assay: TEVC of mutant KCNQ3*-R242A in oocytes; type: cell-based
Source text: as §1, §2

GABAA receptor = tested on: GABAA receptor; set-up: method as in PMID 1378214; conditions: rat brain membranes in vitro; cited from earlier work
KCNQ3* (KCNQ3-A315T) = KCNQ3* (KCNQ3-A315T) (Homo sapiens, UniProt O43525, A315T); assay: TEVC of KCNQ3* homomers expressed in Xenopus laevis oocytes; type: cell-based
Chain of KCNQ3* (KCNQ3-A315T) (O43525 whole entry A315T): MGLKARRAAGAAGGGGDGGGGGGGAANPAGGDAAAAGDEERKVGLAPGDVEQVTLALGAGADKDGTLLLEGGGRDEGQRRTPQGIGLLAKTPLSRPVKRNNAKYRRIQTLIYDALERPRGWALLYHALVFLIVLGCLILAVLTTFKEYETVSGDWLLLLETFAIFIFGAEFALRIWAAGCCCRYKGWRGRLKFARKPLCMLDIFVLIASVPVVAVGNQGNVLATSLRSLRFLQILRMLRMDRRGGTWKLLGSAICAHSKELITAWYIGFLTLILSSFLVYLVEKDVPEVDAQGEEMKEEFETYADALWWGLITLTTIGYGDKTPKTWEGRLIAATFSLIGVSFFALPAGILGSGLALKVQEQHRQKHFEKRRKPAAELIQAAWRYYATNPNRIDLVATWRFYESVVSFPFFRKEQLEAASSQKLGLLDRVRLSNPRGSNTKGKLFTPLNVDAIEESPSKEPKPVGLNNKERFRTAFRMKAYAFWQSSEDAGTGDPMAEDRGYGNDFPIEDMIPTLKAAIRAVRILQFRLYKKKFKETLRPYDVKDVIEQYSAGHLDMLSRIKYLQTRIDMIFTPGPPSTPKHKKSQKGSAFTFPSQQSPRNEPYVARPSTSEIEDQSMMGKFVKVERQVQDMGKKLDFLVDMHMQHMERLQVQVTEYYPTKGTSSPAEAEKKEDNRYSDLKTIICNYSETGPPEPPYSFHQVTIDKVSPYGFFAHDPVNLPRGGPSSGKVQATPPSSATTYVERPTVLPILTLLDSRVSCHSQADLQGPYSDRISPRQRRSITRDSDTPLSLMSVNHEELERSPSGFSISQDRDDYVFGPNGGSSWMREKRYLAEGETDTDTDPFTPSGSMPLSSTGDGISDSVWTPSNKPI
Source text: We placed oocytes in a small-volume oocyte bath (Warner) and viewed them with a dissection microscope for cellular electrophysiology. We sourced chemicals from Sigma-Aldrich (St. Louis, MO, USA) and Combi-Blocks (San Diego, CA, USA). We studied effects of Salvia rosmarinus extracts and of compounds, solubilized directly in bath solution (in mM): 96 NaCl, 4 KCl, 1 MgCl2, 1 CaCl2, 10 HEPES (pH 7.6). We introduced extracts or compounds into the oocyte recording bath by gravity perfusion at a constant flow of 1 ml per minute for 3 min prior to recording. Pipettes were of 1-2 MΩ resistance when filled with 3 M KCl. […] We analyzed data using Clampfit (Molecular Devices) and Graphpad Prism software (GraphPad, San Diego, CA, USA), stating values as mean ± SEM. We plotted raw or normalized tail currents versus prepulse voltage and fitted with a single Boltzmann function:1 g=(A1−A2)/1+exp[V1/2−V/Vs]y+A2 where g is the normalized tail conductance, A1 is the initial value at -∞, A2 is the final value at +∞, V1/2 is the half-maximal voltage of activation and Vs the slope factor. We fitted activation and deactivation kinetics with single exponential functions.

[1] = 5 µM, post 3 hrs. incubation 30 µM Wortmannin

CC(C)c1cc2c(c(O)c1O)[C@@]1(C(=O)O)CCCC(C)(C)[C@@H]1CC2 [Carnosic acid, carnosic acid]
V0.5 Normalized tail current (KCNQ2/3/5; 0.1 µM): -43.51 ± 1.17 mV
V0.5 Normalized tail current (KCNQ2/3/5; 1 µM): -47.43 ± 0.94 mV
V0.5 Normalized tail current (KCNQ2/3/5; 3 µM): -49.89 ± 0.88 mV
V0.5 Normalized tail current (KCNQ2/3/5; 10 µM): -52.31 ± 0.77 mV
V0.5 Normalized tail current (KCNQ2/3/5; 30 µM): -54.68 ± 0.89 mV
V0.5 Normalized tail current (KCNQ2/3/5; 100 µM): -57.42 ± 1.03 mV
EC50 (KCNQ2/3/5; EC50 EM): 3.13 ± 0.44 µM
EC50 (KCNQ2/3/5; EC50 V0.5 Activation): 2.02 ± 0.44 µM
V0.5 Normalized tail current (KCNQ3/5; 0.1 µM): -41.88 ± 0.50 mV
V0.5 Normalized tail current (KCNQ3/5; 1 µM): -47.59 ± 0.51 mV
V0.5 Normalized tail current (KCNQ3/5; 3 µM): -52.07 ± 0.47 mV
V0.5 Normalized tail current (KCNQ3/5; 10 µM): -56.02 ± 0.57 mV
V0.5 Normalized tail current (KCNQ3/5; 30 µM): -62.10 ± 0.87 mV
V0.5 Normalized tail current (KCNQ3/5; 100 µM): -68.83 ± 1.11 mV
channel opening (KCNQ3/5; 100 µM): powerful opener
EC50 (KCNQ3/5; EC50 EM): 4.21 ± 0.16 µM
EC50 (KCNQ3/5; EC50 V0.5 Activation): 4.53 ± 0.11 µM
V0.5 Normalized tail current (KCNQ2; 0.1 µM): -41.03 ± 1.43 mV
V0.5 Normalized tail current (KCNQ2; 1 µM): -44.14 ± 0.95 mV
V0.5 Normalized tail current (KCNQ2; 3 µM): -46.74 ± 0.85 mV
V0.5 Normalized tail current (KCNQ2; 10 µM): -45.67 ± 0.73 mV
V0.5 Normalized tail current (KCNQ2; 30 µM): -45.20 ± 0.88 mV
V0.5 Normalized tail current (KCNQ2; 100 µM): -43.10 ± 0.64 mV
activity across the concentration range tested (KCNQ2; 0.1-100 µM): only weakly active
EC50 (KCNQ3*-R242A): 8.31 ± 0.14 µM
V0.5 Normalized tail current (KCNQ3*-R242A; 0.1 µM): -21.11 ± 0.68 mV
V0.5 Normalized tail current (KCNQ3*-R242A; 1 µM): -24.52 ± 0.42 mV
V0.5 Normalized tail current (KCNQ3*-R242A; 3 µM): -27.59 ± 0.38 mV
V0.5 Normalized tail current (KCNQ3*-R242A; 10 µM): -30.42 ± 0.37 mV
V0.5 Normalized tail current (KCNQ3*-R242A; 30 µM): -35.30 ± 0.41 mV
Slope (KCNQ3*-R242A; 100 µM): 8.88 ± 0.59 mV
efficacy in terms of ΔV0.5act versus KCNQ3* (KCNQ3*-R242A; dose-response): halved
effect on binding of [35S]tert-butylbicyclophosphorothionate (GABAA receptor): decrease the binding affinity
V0.5 Normalized tail current (KCNQ3* (KCNQ3-A315T); 0.1 µM): -55.21 ± 0.45 mV
V0.5 Normalized tail current (KCNQ3* (KCNQ3-A315T); 1 µM): -59.60 ± 0.47 mV
V0.5 Normalized tail current (KCNQ3* (KCNQ3-A315T); 3 µM): -63.92 ± 0.74 mV
slowing of deactivation rate (KCNQ3* (KCNQ3-A315T); 3 µM, at −120 mV): > fourfold
change of activation rate (KCNQ3* (KCNQ3-A315T); 3 µM, voltage-independent): doubled
Slope (KCNQ3* (KCNQ3-A315T); 5 µM): 7.61 ± 0.94 mV
V0.5 Normalized tail current (KCNQ3* (KCNQ3-A315T); 5 µM): -63.93 ± 1.08 mV
Slope (KCNQ3* (KCNQ3-A315T); [1]): 6.70 ± 0.56 mV
V0.5 Normalized tail current (KCNQ3* (KCNQ3-A315T); [1]): -46.82 ± 0.64 mV
time to saturation of current potentiation upon wash-in (KCNQ3* (KCNQ3-A315T); 5 µM, −60 mV): around 150 s
V0.5 Normalized tail current (KCNQ3* (KCNQ3-A315T); 10 µM): -73.28 ± 1.41 mV
V0.5 Normalized tail current (KCNQ3* (KCNQ3-A315T); 30 µM): -92.58 ± 2.21 mV
Slope (KCNQ3* (KCNQ3-A315T); 100 µM): 9.91 ± 0.62 mV
V0.5 non-normalized tail current (KCNQ3* (KCNQ3-A315T); 100 µM): -111.1 ± 5.75 mV
effect on EM of unclamped oocytes (KCNQ3* (KCNQ3-A315T); 100 µM (hesperidin 30 µM)): hyperpolarized
EC50 (KCNQ3* (KCNQ3-A315T); EC50 EM, EM of unclamped oocytes): 1.19 ± 0.19 µM
EC50 (KCNQ3* (KCNQ3-A315T); EC50 Fold change -60 mV, current increase at −60 mV): 5.43 ± 0.37 µM
EC50 (KCNQ3* (KCNQ3-A315T); EC50 V0.5 Activation, ΔV0.5act): 18 ± 0.72 µM
